Measured values as given in US20240174634A1, “Aldehyde Dehydrogenase Inhibitors and Their Therapeutic Use” (priority 2020, published 2024).

Experiment: In vivo pharmacokinetics in female BALB/c mice
Design: species or system mouse
Conditions: for AUC / Cmax: po, 5 mg/kg orally by gavage
Protocol: All procedures involving animals were performed in accordance with national Home Office regulations under the Animals (Scientific Procedures) Act 1986 and within guidelines set out by the Institute's Animal Ethics Committee and the United Kingdom Coordinating Committee for Cancer Research's ad hoc Committee on the Welfare of Animals in Experimental Neoplasia. Female BALB/c mice (Charles River Laboratories) at 6 weeks of age were used for the PK analyses. The mice were dosed orally by gavage (5 mg/kg in DMSO:water 1:19 v:v; n=6) or intravenously in the tail vein (1 mg/kg in DMSO:Tween20:saline 10:1:89 v:v:v; n=6). Blood samples (˜20 μL) were taken from the tail vein from each group of mice (2 groups, 3 mice/group) alternated at 5, 15 and 30 minutes, 1, 2, 4 and 6 and 8 hours after dosing. For clarity, group 1 was bled at 5 minutes, 30 minutes, 2 hours and 6 hours; group 2 was bled at 15 minutes, 1 hour, 4 hours and 8 hours. Plasma samples were snap frozen in liquid nitrogen and then stored at −80° C. prior to analysis.
Test compound solutions (1 mg/mL in DMSO) were used to make stock Standard Curve (SC) and Quality Control (QC) solutions at appropriate concentrations. Blank plasma was spiked with stock solutions to produce a 9-point standard curve ranging from 1.5-10,000 […]; with 2 QC concentrations within this range and where the DMSO concentration was 10% of the plasma volume. Plasma PK samples, Standards and QC's were added to individual Eppendorf tubes and DMSO (10% of plasma volume) was added to the plasma PK samples. SC, QC and plasma samples were extracted with methanol (100 μL) containing internal standard. Following protein precipitation, the samples were centrifuged for 10 minutes in a refrigerated centrifuge (4° C.) at 14000 rpm. The supernatants were removed to a 96-well plate and centrifuged for a further 10 minutes in a refrigerated centrifuge (4° C.) at 3700 rpm. Samples were analysed by Liquid Chromatography Mass Spectrometry (LC-MS/MS) for the compound plasma concentrations. Non-compartmental analysis was performed on plasma concentration data using the Excel macro PK Solver 2.0.

Compound | F (5 mg/kg po vs 1 mg/kg iv) [%] | clearance (mouse, plasma, iv, 1 mg/kg intravenously, read-out: Cl iv) [mL/min/kg] | AUC (mouse, plasma) [µM·h] | Cmax (mouse, plasma) [µM]
O=C1CCc2cc(NC(=O)c3scnc3-c3cccc(F)c3)ccc2N1 [ALDHI-1003, 4-(3-fluorophenyl)-N-(2-oxo-3,4-dihydro-1H-quinolin-6-yl)thiazole-5-carboxamide] | 100 | 22.1 | 13.3 | 6.1
CN(CCOc1ccc2c(c1)CCC(=O)N2)C(=O)c1cccc(F)c1 [ALDHI-3008, 3-fluoro-N-methyl-N-[2-[(2-oxo-3,4-dihydro-1H-quinolin-6-yl)oxy]ethyl]benzamide] |  |  | 1.5 | 1.8
